The subject of one assay is thymus. The assay can be described thus: thymolysis test (oral, adrenalectomized rats, thymus weight). To be noted: Rattus norvegicus, 72 h, read-out: Thymolysis ED50. It counts as in vivo, SPF rats. As to the method: The systemic activity of the compounds of this invention was determined as follows with the aid of the well-known thymolysis test:
SPF [specific-pathogen free] rats weighing 70- 110 g were adrenalectomized under ether narcosis. Six animals, respectively, formed each test group and received orally over a period of three days a defined amount of the test compound. On the fourth day, the animals were sacrificed and the weight of their thymus determined. The control animals were treated in the same way, but received a benzyl benzoate-castor -castor oil mixture without the test compound. From the thus-measured thymus weights, the amount of test compound at which a 50% thymolysis was observed was conventionally determined.

The next assay concerns paw edema. Briefly: adjuvant-edema test (oral, Mycobacterium butyricum paw edema). The following applies: Rattus norvegicus, read-out: Adjuvant Edema Test ED50. It counts as in vivo, SPF rats. Here is the method: Furthermore, the systemic activity was determined with the aid of the adjuvant-edema test as follows:
SPF rats weighing 130-150 g were injected in the right hind paw with 0.1 ml of a 0.5% Mycobacterium butyricum suspension (obtainable from the U.S. company, Difco), in order to induce a center of inflammation. Prior to injection, the paw volume of the rats was measured. Twenty four hours after injection, the paw volume was measured once again to determine the extent of the edema. Thereafter, varying amounts of the test compound, was administered orally to the rats. After another 24 hours, the paw volume was again determined.
The control animals were treated in the same way but without any test compound.
From the thus-obtained paw volumes, the amount of test compound which was required to achieve a 50% reduction the paw edema was conventionally determined. Difluocotolone 21-valerate was also utilized in these tests as the comparison compound.

The subject of assay [1] is skin (stratum corneum stripped, hyperemia). Briefly: vasoconstriction test (topical ointment on stripped skin, skin color value). In kind it is in vivo, human volunteers. The following applies: concentration 0.00001%, untreated skin = 100, stripped skin = 0. As to the method:
The local anti-inflammatory activity of the corticoids can be determined by means of the conventional vasoconstriction test.
On the backs of persons volunteering for the experiment, the stratum corneum was split up by the application and removal of an adhesive strip having a width of 2 cm. applied twenty times at the same spot, thus producing a pronounced hyperemia. Within the stripped area, 50 mg of an ointment preparation were applied to each one of a number of marked zones of a size of 4 cm^2. The ointment base without active ingredient served as the blank value. The color value of the untreated skin was set at 100 while that of the stripped skin was set at 0. The skin color value under vasoconstriction was correspondingly evaluated between 0 and 100.

Setting [2] is: oral, three days, 50% thymolysis, adrenalectomized rats, systemic activity.
Where [3] appears, read: oral, 50% reduction of paw edema, systemic activity.

Like-named read-outs stand apart in the source and are kept apart here.

As usually defined, the ED50 is the dose at which the effect has come halfway, by size or by number of responders. `CCC(=O)O[C@]1(C(=O)CCl)CC[C@H]2C3=C([C@@H](O)C[C@@]21C)[C@@]1(C)C=CC(=O)C=C1CC3` [IV, 21-Chloro-11β-hydroxy-17α-propionyloxy-1,4,8(9)-pregnatriene-3,20-dione]: in the assay on thymus (setting [2]), the median effective dose (ED50) came out at 2 mg/kg. In the assay with paw edema (setting [3]), the ED50 was 2 mg/kg. In addition, in assay [1], the “Vasoconstriction after 4 Hours” value was found to be 47% and the “Vasoconstriction after 8 Hours” value is listed as 45%.

`CC(C)(C)C(=O)OCC(=O)[C@@]1(OC(=O)c2ccccc2)CC[C@H]2C3=C([C@@H](O)C[C@@]21C)[C@@]1(C)C=CC(=O)C=C1CC3` [II, 17α-Benzoyloxy-11β-hydroxy-21-trimethylacetoxy-1,4,8(9)-pregnatriene-3,20-dione]: the median effective dose (ED50) in the assay with thymus (setting [2]) was found to be 5.5 mg/kg. Also, the ED50 in the assay with paw edema (setting [3]) came to 10 mg/kg. Further, in assay [1], the “Vasoconstriction after 4 Hours” value worked out at 30% and the “Vasoconstriction after 8 Hours” value worked out at 33%.

`CCCCC(=O)OCC(=O)[C@H]1[C@H](C)C[C@H]2[C@@H]3C[C@H](F)C4=CC(=O)C=C[C@]4(C)[C@@]3(F)[C@@H](O)C[C@@]21C` [I, 6α, 9α-difluoro-11β-hydroxy-16α-methyl-21-valeryloxy-1,4-pregnadiene-3,20-dione, reference compound]: the ED50 with thymus (po) was 0.03 mg/kg. Also, the median effective dose (ED50) in the assay on paw edema (po) is 0.3 mg/kg. Moreover, in assay [1], the “Vasoconstriction after 4 Hours” value is reported as 33% and the “Vasoconstriction after 8 Hours” value worked out at 36%.

Take `C[C@]12C=CC(=O)C=C1CCC1=C2[C@@H](O)C[C@@]2(C)[C@H]1CC[C@]2(OC(=O)c1ccccc1)C(=O)CCl` [V, 17α-Benzoyloxy-21-chloro-11β-hydroxy-1,4,8(9)-pregnatriene-3,20-dione]: the median effective dose (ED50) in the assay on thymus (setting [2]) and in the assay with paw edema (setting [3]) was 1 mg/kg each time. For the same compound, in assay [1], the “Vasoconstriction after 4 Hours” value worked out at 52%. Further, the “Vasoconstriction after 8 Hours” value in assay [1] was found to be 64%.

Turning to `CC(=O)O[C@]1(C(=O)CCl)CC[C@H]2C3=C([C@@H](O)C[C@@]21C)[C@@]1(C)C=CC(=O)C=C1CC3` [III, 17α-Acetoxy-21-chloro-11β-hydroxy-1,4,8(9)-pregnatriene-3,20-dione], the median effective dose (ED50) in the assay on thymus (setting [2]) is 3.6 mg/kg. The ED50 with paw edema (setting [3]) worked out at 3.6 mg/kg. Also, in assay [1], the “Vasoconstriction after 4 Hours” value is listed as 42% and the “Vasoconstriction after 8 Hours” value was determined as 42%.

Source of the values: patent US4176126A, “Novel corticoids” (Schering Aktiengesellschaft, priority 1976, dated 1979).
